Experimental data published in patent US8378104B2 (OSI Pharmaceuticals, LLC, priority 2010, dated 2013).
Counter-ions that a name gives are not always drawn. Like-named read-outs stand apart in the source and are kept apart here.

Key:
TAK1-TAB1 fusion protein = biological target: T1, TAK1-TAB1 fusion protein (Homo sapiens, UniProt O43318); test: TAK1 biochemical assay (AlphaScreen, GST-MAP2K7 substrate)
T1 construct: purchased Carna
T1 sequence (O43318 with tags, fused parts or gaps limits assumed): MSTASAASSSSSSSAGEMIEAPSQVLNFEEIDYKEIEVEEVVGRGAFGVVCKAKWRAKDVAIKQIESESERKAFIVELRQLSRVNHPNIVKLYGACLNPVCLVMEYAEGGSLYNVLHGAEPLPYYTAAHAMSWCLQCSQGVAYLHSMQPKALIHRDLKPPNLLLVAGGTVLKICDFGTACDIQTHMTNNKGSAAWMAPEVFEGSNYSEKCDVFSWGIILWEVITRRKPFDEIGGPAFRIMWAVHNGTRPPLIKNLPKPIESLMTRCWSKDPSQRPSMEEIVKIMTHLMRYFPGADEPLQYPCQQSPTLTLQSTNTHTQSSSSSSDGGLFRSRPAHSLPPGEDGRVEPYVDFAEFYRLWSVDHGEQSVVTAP

pJNK in HCT-116 cells = test: Phospho-JNK (Thr183/Tyr185) Meso Scale ELISA assay, TNFα-stimulated HCT-116 cells; type: cell-based; conditions: Homo sapiens, read-out: mean HCT-116 pJNK ELISA IC50 (Col. B)
Method in brief: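 HCT-116 cells in 1% FCS medium were pretreated with compound for 4 hrs at 37° C, then stimulated with TNFα at 10 ng/mL final for 10 minutes. Lysates were taken in ice-cold lysis buffer with phosphatase and protease inhibitors, and phospho-JNK (Thr183/Tyr185) was measured by Meso Scale ELISA.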

p-p38 in HCT-116 cells = test: Phospho-p38 Meso Scale ELISA assay, TNFα-stimulated HCT-116 cells; type: cell-based; conditions: Homo sapiens, read-out: mean HCT-116 p-p38 ELISA IC50 (Col. C)
Method in brief: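 HCT-116 cells in 1% FCS medium for 2 h, then compound for 4 h at 37° C, then TNFα at 10 ng/mL final for 10 min. Lysates captured overnight at 4° C and phospho-p38 quantified by Meso Scale electrochemiluminescence ELISA.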

[1] = TAK1-TAB1 fusion protein, GST-MAP2K7 substrate, read-out: mean TAK1 IC50 (Col. A)

Row | SMILES | IC50 (TAK1-TAB1 fusion protein; [1]) [µM] | IC50 (pJNK in HCT-116 cells) [µM] | IC50 (p-p38 in HCT-116 cells) [µM] | IC50 (TAK1-TAB1 fusion protein) [µM]
1 | CC(C)C(=O)N1CCC(n2cc(-c3cnc(N)c4oc(-c5cccc6cnccc56)cc34)cn2)CC1 [Example 51, 1-(4-{4-[7-amino-2-(isoquinolin-5-yl)furo[2,3-c]pyridin-4-yl]-1H-pyrazol-1-yl}piperidin-1-yl)-2-methylpropan-1-one] | 0.1 to 1 | < 0.1 | < 0.1 | –
2 | Nc1ncc(-c2cnn(C3CCNCC3)c2)c2cc(-c3csc4cnccc34)oc12 [Example 322, 4-(1-piperidin-4-yl-1H-pyrazol-4-yl)-2-thieno[2,3-c]pyridin-3-yl-furo[2,3-c]pyridin-7-ylamine] | < 0.1 | 0.1 to 1 | 0.1 to 1 | –
3 | Nc1ncc(-c2cnn([C@H]3CC[C@H](O)CC3)c2)c2cc(-c3cccc4cnccc34)oc12 [Example 65, trans-4-{4-[7-amino-2-(isoquinolin-5-yl)furo[2,3-c]pyridin-4-yl]-1H-pyrazol-1-yl}cyclohexanol] | 0.1 to 1 | < 0.1 | 0.1 to 1 | –
4 | CC(=O)N1CCC(n2cc(-c3cnc(N)c4oc(-c5cccc6c5CC(=O)N6)cc34)cn2)CC1 [Example 227, 4-{4-[1-(1-acetylpiperidin-4-yl)-1H-pyrazol-4-yl]-7-aminofuro[2,3-c]pyridin-2-yl}-1,3-dihydro-2H-indol-2-one] | 0.1 to 1 | 1 to 10 | 1 to 10 | –
5 | CC(=O)N1CCC(n2cc(-c3cnc(N)c4oc(-c5cccn6ccnc56)cc34)cn2)CC1 [Example 221, 1-(4-{4-[7-amino-2-(imidazo[1,2-a]pyridin-8-yl)furo[2,3-c]pyridin-4-yl]-1H-pyrazol-1-yl}piperidin-1-yl)ethanone bis(trifluoroacetate)] | 0.1 to 1 | 0.1 to 1 | 0.1 to 1 | –
6 | Nc1ncc(-c2cnn(C3CCNCC3)c2)c2cc(-c3ccc4[nH][nH]c(=O)c4c3)oc12 [Example 55, 5-{7-amino-4-[1-(piperidin-4-yl)-1H-pyrazol-4-yl]furo[2,3-c]pyridin-2-yl}-1,2-dihydro-3H-indazol-3-one trifluoroacetic acid salt] | < 0.1 | > 10 | > 10 | –
7 | Nc1ncc(-c2cnn(C3CNC3)c2)c2cc(-c3csc4cnccc34)oc12 [Example 314, 4-(1-azetidin-3-yl-1H-pyrazol-4-yl)-2-thieno[2,3-c]pyridin-3-yl-furo[2,3-c]pyridin-7-ylamine] | < 0.1 | 1 to 10 | 0.1 to 1 | –
8 | Nc1ncc(-c2cnn(C3CCNCC3)c2)c2cc(-c3ccc4[nH]ccc4c3)oc12 [Example 38, 2-(1H-indol-5-yl)-4-[1-(piperidin-4-yl)-1H-pyrazol-4-yl]furo[2,3-c]pyridin-7-amine] | 0.1 to 1 | 1 to 10 | 1 to 10 | –
9 | CC(=O)N1CCC(n2cc(-c3cnc(N)c4oc(-c5cccc([N+](=O)[O-])c5)cc34)cn2)CC1 [Example 112, 1-(4-{4-[7-amino-2-(3-nitrophenyl)furo[2,3-c]pyridin-4-yl]-1H-pyrazol-1-yl}piperidin-1-yl)ethanone] | < 0.1 | 0.1 to 1 | 0.1 to 1 | –
10 | COc1cc2c(-c3cc4c(-c5cnn(C6CCN(C(C)=O)CC6)c5)cnc(N)c4o3)csc2cn1 [Example 243, 1-(4-{4-[7-amino-2-(5-methoxythieno[2,3-c]pyridin-3-yl)furo[2,3-c]pyridin-4-yl]-1H-pyrazol-1-yl}piperidin-1-yl)ethanone] | 1 to 10 | 0.1 to 1 | 1 to 10 | –
11 | CC(=O)N1CCC(n2cc(-c3cnc(N)c4oc(-c5cccc6ccccc56)cc34)cn2)CC1 [Example 105, 1-(4-{4-[7-amino-2-(naphthalen-1-yl)furo[2,3-c]pyridin-4-yl]-1H-pyrazol-1-yl}piperidin-1-yl)ethanone] | 0.1 to 1 | 1 to 10 | 1 to 10 | –
12 | CC(C)(C)OC(=O)N1CCC(n2cc(-c3cnc(N)c4oc(-c5cccc6cnsc56)cc34)cn2)CC1 [Example 302, 4-[4-(7-amino-2-benzo[d]isothiazol-7-yl-furo[2,3-c]pyridin-4-yl)-pyrazol-1-yl]-piperidine-1-carboxylic acid tert-butyl ester] | 0.1 to 1 | 0.1 to 1 | 1 to 10 | –
13 | CC(=O)N1CCC(n2cc(-c3cnc(N)c4oc(-c5csc6ccccc56)cc34)cn2)CC1 [Example 219, 1-(4-{4-[7-amino-2-(1-benzothiophen-3-yl)furo[2,3-c]pyridin-4-yl]-1H-pyrazol-1-yl}piperidin-1-yl)ethanone] | 0.1 to 1 | 0.1 to 1 | 0.1 to 1 | –
14 | CC(=O)N1CCC(n2cc(-c3cnc(N)c4oc(-c5cccc6cnsc56)cc34)cn2)CC1 [Example 226, 1-(4-{4-[7-amino-2-(1,2-benzothiazol-7-yl)furo[2,3-c]pyridin-4-yl]-1H-pyrazol-1-yl}piperidin-1-yl)ethanone] | < 0.1 | < 0.1 | < 0.1 | –
15 | CC(=O)N1CCC(n2cc(-c3cnc(N)c4oc(-c5ccc6c(c5)OCO6)cc34)cn2)CC1 [Example 117, 1-(4-{4-[7-amino-2-(1,3-benzodioxol-5-yl)furo[2,3-c]pyridin-4-yl]-1H-pyrazol-1-yl}piperidin-1-yl)ethanone] | 1 to 10 | 1 to 10 | 1 to 10 | –
16 | Cn1cc(-c2cnc(N)c3oc(-c4csc5cnccc45)cc23)cn1 [Example 290, 4-(1-methyl-1H-pyrazol-4-yl)-2-thieno[2,3-c]pyridin-3-yl-furo[2,3-c]pyridin-7-ylamine] | – | 0.1 to 1 | 0.1 to 1 | 0.1 to 1
17 | CC(=O)N1CCC(n2cc(-c3cnc(N)c4oc(-c5ccc6[nH]ccc6c5)cc34)cn2)CC1 [Example 92, 1-(4-{4-[7-amino-2-(1H-indol-5-yl)furo[2,3-c]pyridin-4-yl]-1H-pyrazol-1-yl}piperidin-1-yl)ethanone] | 1 to 10 | 0.1 to 1 | 0.1 to 1 | –
18 | CC(=O)N1CCC(n2cc(-c3cnc(N)c4oc(-c5cccc(OCC#N)c5)cc34)cn2)CC1 [Example 205, (3-{4-[1-(1-acetylpiperidin-4-yl)-1H-pyrazol-4-yl]-7-aminofuro[2,3-c]pyridin-2-yl}phenoxy)acetonitrile] | 0.1 to 1 | 0.1 to 1 | 0.1 to 1 | –
19 | CC(=O)N1CCC(n2cc(-c3cnc(N)c4oc(-c5ccc6c(c5)CCO6)cc34)cn2)CC1 [Example 108, 1-(4-{4-[7-amino-2-(2,3-dihydro-1-benzofuran-5-yl)furo[2,3-c]pyridin-4-yl]-1H-pyrazol-1-yl}piperidin-1-yl)ethanone] | 0.1 to 1 | 0.1 to 1 | < 0.1 | –
